Activity calls are given as the source filed them.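 The calls were made as follows: active = compounds giving half or more protection of infected cells from virus-caused growth loss, again on retest; inactive = the rest.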 Where a SMILES comes first, the peptide text is derived from it.
Test system: CEM cells HIV-1 protection, formazan growth assay
Assay: NCI AIDS Antiviral Assay
Settings: for IC50: measured here: growth of uninfected CEM cells
Method in brief: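 Category rules: moderately active means at least 50% protection on retest, and confirmed active means 100% protection reproducibly. The underlying data came from a formazan growth assay in HIV-1-infected CEM cells.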

| SMILES | EC50 [µM] | IC50 [µM] | outcome |
| --- | --- | --- | --- |
| COC(=O)/C(=N\Nc1nc(=S)[nH]n1N)C(C#N)c1ccccc1 (stereo unspecified) | > 178 | > 178 |  |
| CCCCCCCCCCCCC(F)C(=O)OCC1OC(n2cc(C)c(=O)[nH]c2=O)CC1N=[N+]=[N-] (stereo unspecified) | 0.0123 | 102 |  |
| COc1cccc2c1C(=O)C1=C(C2=O)C(O)CC(C)(C)O1 (stereo unspecified) | > 200 | 33.9 |  |
| C[C@H](CS)C(=O)N1c2ccccc2C[C@H]1C(=O)O | > 200 | > 200 |  |
| CC/C(=N/O)c1ccc(Br)s1 |  |  | inactive |
| CSc1nc(C)c(C(=O)CCN2CCOCC2)s1 | > 200 | 10 |  |
| N#CC(C#N)=C1SCC(=O)CS1 |  |  | inactive |
| On1ccccc1=S | > 2 | 1.32 |  |
| Cc1cc(=O)oc2cc(O)c(O)cc12 | > 200 | 27.5 |  |
| COc1c2c(c3c(c1C1OC(C)[C@@H](C)O1)CC(C)(C)O3)C(=O)c1ccccc1C2=O (stereo partly specified) | > 63.1 | > 63.1 |  |
| N#Cc1ccccc1NC(=O)C(=O)C(C(=O)c1ccncc1)C1OC(=O)c2ccccc21 (stereo unspecified) | > 589 | > 589 |  |
| O=[N+]([O-])c1ccc(-n2nc3ccc4c(no[n+]4[O-])c3[n+]2[O-])c([N+](=O)[O-])c1 | > 20 | 0.407 |  |
| Cn1c(=O)cc2[nH]c3ccccc3n2c1=O | > 63.1 | > 63.1 |  |
| O=c1[nH]c2ccc(CC(=S)N3CCCCC3)cc2s1 | > 200 | 148 |  |
| NC(=Nc1ccc(O)cc1)S(=O)O | > 200 | 120 |  |
| COC(=O)C(=O)C1CCCCC(C2=NC3NN=C(N)N3C2=O)C1=O (stereo unspecified) | > 21.4 | > 21.4 |  |
| CC(=O)SCCC1c2[nH]c3ccccc3c2CCN1O (stereo unspecified) |  |  | inactive |
| Cc1cn(C2OC(COC(=O)c3ccccc3)C(OC(=O)c3ccccc3)C2I)c(=O)[nH]c1=O (stereo unspecified) | > 200 | 37.2 |  |
| CC[C@]1(Cc2ccc(OC)c(OC)c2)[C@@H]2C[C@@H](C(=O)OC)ON2O[C@H](OC2CCCC2(c2ccccc2)c2ccccc2)[C@@H]1OC(C)=O (stereo partly specified) | > 200 | 21.4 |  |
| COC(=O)[C@H](Cc1ccccc1)NC(=O)OCC1OC(n2cc(C)c(=O)[nH]c2=O)CC1N=[N+]=[N-] (stereo partly specified) | > 200 | > 200 |  |
| CCOC(=O)c1c[nH]c(C(=O)OCC)c1-c1cccn1-c1ccccc1 | > 200 | 24.5 |  |
| S=C=Nc1ccc(SSc2ccc(N=C=S)cc2)cc1 | > 13.5 | 11.2 |  |

| SMILES | EC50 [µM] | IC50 [µM] | outcome |
| --- | --- | --- | --- |
| CCOc1ccc(N=C2NC(=O)C(CC(=O)Nc3ccc(Cl)cc3Cl)S2)cc1 (stereo unspecified) | > 214 | > 214 |  |
| CCN(CC)CC.CCOc1ccc(NC(=O)N=C=[N-])cc1.[CH-]1CCCCC1.[CH-]1CCCCC1.[CH-]1CCCCC1.[Cl-].[Sn+4] |  |  | inactive |
| Cc1ccc(S(=O)(=O)NC(=O)OC23COCN2COC3)cc1 | > 759 | 132 |  |
| Cc1ccc(C)n1-n1c(Cc2ccc(Cl)cc2)n[nH]c1=O | > 200 | 50.1 |  |
| CN(CCc1ccc(Br)cc1)CCN1CCCCC1 | > 123 | 57.5 |  |
| NS(=O)(=O)c1cc2c(cc1Cl)NC(CC1CCCC1)NS2(=O)=O (stereo unspecified) | > 200 | > 200 |  |
| CC(c1ccccc1)N1CC(=O)N([C@H](C)c2ccccc2)C1=O (stereo partly specified) | > 200 | > 200 |  |
| CCOC(=O)c1cc2c3c(cc(OC)c2[nH]1)N(C(=O)OCC)CC3 | > 100 | > 100 |  |
| CCOP(=O)(OCC)C(Nc1ccc(C(=O)O)cc1)c1ccc(C(Nc2ccc(C(=O)O)cc2)P(=O)(OCC)OCC)cc1 (stereo unspecified) | > 200 | > 200 |  |
| CC(=O)OC[C@]12[C@H](OC(C)=O)[C@H](OC(C)=O)[C@@H]3C(OC(C)=O)[C@@]14OC3(C)COC(=O)c1cccnc1CCC(C)C(=O)OC([C@H]4C)[C@H](O)[C@@H]2OC(=O)c1ccccc1 (stereo partly specified) |  |  | inactive |
| CS(=O)(=O)OCCNC[C@@H](O)[C@@H](O)CNCCOS(C)(=O)=O | > 692 | 1.38 |  |
| O=C1C2C(C(=O)N1c1ccccc1)C1c3ccccc3C2C2C(=O)N(c3ccccc3)C(=O)C21 (stereo unspecified) |  |  | inactive |
| Nc1ncnc2c1ncn2C1CCC(COS(N)(=O)=O)C1 (stereo unspecified) | > 200 | > 200 |  |
| Cc1cc(O)c2c(oc3cc(O)c4c(c32)COC4=O)c1C(=O)O | > 56.2 | 18.6 |  |
| COC(=O)[C@]1(C)CCC[C@]2(C)c3ccc(C(C)C)cc3C(=O)C[C@@H]12 | > 200 | 31.6 |  |
| O=Nc1c(N=O)c(N=O)c(N=O)c(N=O)c1N=O | > 20 | 2.34 |  |
| CCNC(=S)N/N=C/c1cc(OC)ccc1O | > 200 | 107 |  |
| COc1cccc2c1C(=O)c1c(O)c3c(c(O)c1C2=O)C[C@@](O)(/C(C)=N\O)C[C@@H]3OC1CC(N)C(O)C(C)O1 (stereo partly specified) | > 0.2 | 0.0646 |  |
| CN(C)c1ccc(CC2CCc3ccccc32)cc1 (stereo unspecified) | > 20.9 | > 20.9 |  |
| CCC[CH2][Sn]1([CH2]CCC)[O]C(=O)c2cccc(OC)c2[O]1 |  |  | inactive |
| COc1c2c3c(c(OC)c1OC)-c1ccc(O)cc1C3=NCC2 |  |  | inactive |
| Nc1nc2nsnc2nc1N | > 240 | > 240 |  |

| SMILES | EC50 [µM] | IC50 [µM] | outcome |
| --- | --- | --- | --- |
| CCC(C)C(NC(=O)C(N)CCCCN)C(=O)NC(CCC(=O)O)C(=O)NC(CO)C(=O)NC(C)C(=O)NC(C(=O)NC(CC(N)=O)C(=O)NC(CC(C)C)C(=O)NC(CO)C(=O)NC(CCC(N)=O)C(=O)O)C(C)O (stereo unspecified) (H-KIESATNLSQ-OH; configuration not given here) | > 57.5 | > 57.5 |  |
| CC1=C2C(=C(CBr)OS1(=O)=O)C(=O)c1ccccc12 | > 741 | 38.9 |  |
| C1CN2C(=N1)N1CCN=C1N1CCN=C21 | > 174 | > 174 |  |
| O=C1CCC(=O)C(C(=O)CCC(=O)Nc2ccc(Cl)cc2)C1 (stereo unspecified) |  |  | inactive |
| COC(=O)c1cc(C(=CCCN=[N+]=[N-])c2cc(Br)c(OC)c(C(=O)OC)c2)cc(Br)c1OC | 3.24 | 93.3 |  |
| Cc1cn2c(n1)sc1ccccc12 | > 200 | > 200 |  |
| CCCCCCCCCCCCC(Br)C(=O)NCC(N)=O (stereo unspecified) |  |  | inactive |
| COc1ccc2c(=O)c3ccccc3oc2c1 | > 200 | 97.7 |  |
| COc1ccc(N2C(=O)C3c4[nH]c5ccc(F)cc5c4C4CCC(C(C)(C)C)CC4C3C2=O)cc1 (stereo unspecified) | > 200 | 22.4 |  |
| CN(C)CCn1c(=O)oc2cc(C(=O)CN3CCOCC3)ccc21 | > 200 | 102 |  |
| CN(C)CCNc1nc(-c2ccc3ccccc3c2)nc2nc[nH]c12 | > 200 | 3.8 |  |
| O=C(Nc1ccc(Br)cc1)C(=O)C(C(=O)c1ccc(Cl)c(Cl)c1)C1OC(=O)c2ccccc21 (stereo unspecified) | > 66.1 | 10 |  |
| CC(C)=CCC/C(C)=C/CC/C(C)=C/CC/C=C(\C)CC/C=C(\C)CCC1SC1(C)C (stereo unspecified) | > 200 | > 200 |  |
| Cc1noc2cccc(OCc3ccccc3)c12 | > 30.2 | > 30.2 |  |
| N#Cc1cc([N+](=O)[O-])ccc1NC(=O)C(=O)Nc1n[nH]c(N)n1 | > 794 | 692 |  |
| CCN(CC)CCCn1c(=O)c2cccnc2n2c3c(=O)n(C)c(=O)n(C)c3nc12 | 25.1 | 126 |  |
| Cc1ccc(C2=Nn3c(nc4sc(C)c(C)c4c3=O)SC2)cc1 | > 200 | > 200 |  |
| Nc1ncnc2c1nnn2C1C=CC(CP(=O)(O)O)C1 (stereo unspecified) | > 200 | > 200 |  |
| O=S(=O)(c1ccccc1)c1ccccn1 | 75.9 | 407 |  |
| Ic1nc(-c2ccccc2)[nH]c1I |  |  | inactive |
| CCOC(=O)CN=c1nc(SC)sc2c(C(=O)OCC)nc(Sc3ccccc3)n12 | > 60.3 | 10.7 |  |
| CCN(CC)CC[NH-].O=C([O-])[O-].O=C([O-])[O-].[Co+3].[K+] | > 200 | 18.6 |  |

| SMILES | EC50 [µM] | IC50 [µM] | outcome |
| --- | --- | --- | --- |
| O=C1c2ccccc2-n2nnnc2C2CSCN12 (stereo unspecified) | > 200 | > 200 |  |
| Cc1cc(C)c(C#N)c(SCC(=O)c2sc3c(C#N)c(C)cc(C)[n+]3c2[O-])n1 | > 6.61 | > 6.61 |  |
| Cc1ccccc1NC(=O)CSc1nnc(Cc2ccccc2)o1 | > 263 | 234 |  |
| Nc1ccc(S(N)(=O)=O)cc1SSc1cc(S(N)(=O)=O)ccc1N | 55 | 132 |  |
| CC(C)(C)OC(=O)C1CCC/C1=N/Nc1ccc([N+](=O)[O-])cc1[N+](=O)[O-] (stereo unspecified) | > 200 | 30.2 |  |
| O=C1OC(=O)C2=C1C1c3ccccc3C2c2ccccc21 | > 95.5 | 22.4 |  |
| CC(C)(C)C1CCC(C[Se]c2ccc(Cl)cc2)([N+](=O)[O-])CC1 (stereo unspecified) |  |  | inactive |
| CSc1c(C(=O)Nc2ccc(Cl)cc2)c(N)nn1-c1ccccc1 | > 200 | > 200 |  |
| Cc1cc2nc3c(C(OC4OC(CO)C(O)C(O)C4O)C(O)CO)nn(-c4ccccc4)c3nc2cc1C (stereo unspecified) |  |  | inactive |
| CC(=O)CC1(C)OC(N)=C(C#N)C1(C#N)C#N (stereo unspecified) | > 200 | 162 |  |
| [O-]/[N+]1=[N+](\[O-])c2ccccc2COCc2ccccc21 |  |  | inactive |
| CC1CCc2[nH]nc(CC3CC(=O)NC(=O)C3)c2C1 (stereo unspecified) | > 200 | > 200 |  |
| NC(=Nc1ccc(O)cc1)S(=O)(=O)O | 63.1 | 97.7 |  |
| CC(=O)NC(CCCN(Cc1ccccc1)C(=O)N(CCCl)N=O)C(=O)NCc1ccccc1 (stereo unspecified) | > 74.1 | 45.7 |  |
| CC(=O)c1cccc(C)c1C(=O)O |  |  | inactive |
| Cc1ccc(C(=O)NC2CCCCC2)cc1N=NN(C)C | > 46.8 | 45.7 |  |
| COc1ccc2c(c1)c(=O)c1ccccc1n2/C=C/C(=O)O | > 617 | 105 |  |
| O=C1CCC(c2ccccc2)(C2(c3ccccc3)CCC(=O)O2)O1 (stereo unspecified) | > 200 | 151 |  |
| O=C1c2cnccc2Cc2cccc3c2N1c1ccccc1S3 | > 22.9 | > 22.9 |  |
| COC(=O)/C(=C/CC(N=C(c1ccccc1)c1ccccc1)C(=O)OC)N=C(c1ccccc1)c1ccccc1 (stereo unspecified) | > 9.77 | > 9.77 |  |
| OCCN(CCO)c1cc(Cl)c(Cl)cc1Cl | > 200 | 35.5 |  |
| C=CC(C)(C)C(=C)C(=O)Nc1ccccc1I | > 200 | > 200 |  |
